Test results as given in US20120184590A1, “FORMULATIONS OF INDOLE-3-CARBINOL DERIVED ANTITUMOR AGENTS WITH INCREASED ORAL BIOAVAILABILITY” (UNIVERSITY OF KANSAS, priority 2009, published 2012).
Entries after “also recorded” stand apart in the source; their conditions may differ. Marks after values point to notes of the source that are not given here.

What was measured:
[1] = Clinical observations and clinical pathology (liver enzymes) in monkeys; format: in vivo, cynomolgus monkeys (macaca fasicularis); conditions: for ALT / AST / LDH: fed
Experimental: For both species, each animal was part of each experimental group, with a 7-day interval between treatments to allow for washout of the dosing formulation and its effects. Dosing formulations of SR13668 were administered by oral gavage (intragastric) or intravenous (i.v.) injection as a single dose or once daily for seven consecutive days. Oral to doses were administered at a dosing volume of 5 mL/kg of body weight, while intravenous doses were administered at a dosing volume of 0.5 mL/kg of body weight. Dogs were dosed with 93.6 mg/m^2 SR13668 intravenously in DMSO:PEG300 15:85 (v/v) or orally in Solutol® vehicle (two groups, fed and after an overnight fast). Monkeys were dosed with 84.2 mg/m^2 SR13668 intravenously in DMSO:PEG300 15:85 (v/v) or orally (336.7 mg/m^2 SR13668 for the oral high dose group) in PEG400:Labrasol® 1:1 (v/v) or Solutol® vehicles. Vehicle control groups were used to assess the tolerability of the vehicle and for clinical pathology evaluations.
At the end of each dosing period, the animals were examined for detailed clinical signs and symptoms (i.e., alterations of teeth, nose, eyes, perineum, pelage and body orifices; changes in appearance or behavior) and/or presence of any tissue masses. Body weights were recorded prior to treatment and daily during each testing interval. Quantitative (grams/day) food consumption data were recorded for dogs on a daily basis during each testing interval. Qualitative food consumption observations were recorded for monkeys on a daily basis during each testing interval. Blood samples for clinical pathology (clinical chemistry, hematology, and coagulation) parameter evaluation were collected from dogs and monkeys prior to dosing and on Days 2 and 8 post-dose, as well as from monkeys on Days 15 and 30 post-dose.

[2] = Time for syringe dosage forms to dissolve in warm water; format: physicochemical; conditions: shaken in warm water (approximately 40° C.)
Experimental: A similar set of sample tubes was prepared for a monkey study. Twenty-eight tubes with 11.2±0.1 g of 5 mg/g SR13668 in Solutol were prepared providing a dose of 56 mg SR13668 per tube. A set of 3-mL disposable plastic syringes were prepared containing a 5 mg dose of SR13668 in either Solutol, Vit E TPGS or 1:1 Solutol:Vit E TPGS. The syringes were prepared so the dosage form could be pushed out and dissolved in warm water to administer to monkeys by gavage. The syringes were prepared by (a) cutting off the tip-end at the 0.1 mL mark of a plastic, disposable 3-mL syringe, (b) pulling back the plunger, (c) filling the syringe by weight with the liquid melt at 65° C. to give the correct dosage and (d) allowing the formulation to harden. Each formulation contained between 3.5-4.2 mg SR13668/g matrix and approximately 1.2 g of the formulation was needed in each syringe to give a 5 mg dose. The syringes were fairly easy to make and to expel the dosage form into warm water. The doses where shaken in warm water (approximately 40° C.) and took the following amounts of time to dissolve: <1 min. for Solutol, 15 min for 1:1 Solutol:Vit E TPGS, and 37 min for Vit E TPGS.

[3] = Day 2 (n = 2), 84.2 mg/m^2 (7.02 mg/kg) oral gavage daily days 1 through 7, PEG400:Labrasol 1:1 v/v
[4] = Day 8, 84.2 mg/m^2 (7.02 mg/kg) oral gavage daily days 1 through 7, PEG400:Labrasol 1:1 v/v
[5] = Day 15 (after discontinuation), 84.2 mg/m^2 (7.02 mg/kg) oral gavage daily days 1 through 7, PEG400:Labrasol 1:1 v/v
[6] = Day 30 (after discontinuation), 84.2 mg/m^2 (7.02 mg/kg) oral gavage daily days 1 through 7, PEG400:Labrasol 1:1 v/v
[7] = day 2 following a single dose, 84.2 mg/m^2 (7.02 mg/kg) iv, DMSO:PEG300 15:85 v/v
[8] = day 2 following a single dose, 84.2 mg/m^2 (7.02 mg/kg) oral gavage, Solutol
[9] = day 2 following a single dose, 336.7 mg/m^2 (28.06 mg/kg) oral gavage, PEG400:Labrasol 1:1 v/v
[10] = day 2 following a single dose, n = 4, 84.2 mg/m^2 (7.02 mg/kg) oral gavage, PEG400:Labrasol 1:1 v/v

In the case of CCOC(=O)c1ccc2[nH]c3c(OC)c4[nH]c5ccc(C(=O)OCC)cc5c4cc3c2c1 [SR13668, 2,10-dicarbethoxy-6-methoxy-5,7-dihydro-indolo-(2,3-b)carbazole], the “adverse treatment-related clinical observations” value [1] is reported as “soft stools and diarrhea in orally but not i.v. dosed monkeys”, the “effects on body weights, body weight gains or food consumption” value [1] is reported as “No significant treatment-related effects on body weights, body weight gains or food consumption” and the “effects on clinical pathology (clinical chemistry, hematology, coagulation)” value [1] is reported as “modest, reversible increase in liver function enzymes; also recorded: modest increases in liver enzymes”. The mortality or morbidity [1] was “no mortalities or morbidity”, the ALT [1, 3] was 112 ± 52 IU/L and the AST [1, 3] was 234 ± 115 IU/L. For the same molecule, the LDH [1, 3] was 1022 ± 401 IU/L, the ALT [1, 4] was 100 ± 38 ^a IU/L and the AST [1, 4] was 178 ± 86 ^b IU/L. The LDH [1, 4] was 1035 ± 596 IU/L, the ALT [1, 5] was 41.3 ± 10 IU/L and the AST [1, 5] was 24.0 ± 2.9 IU/L. It also gave an LDH [1, 5] of 184 ± 39 IU/L, an ALT [1, 6] of 33.3 ± 2.2 IU/L and an AST [1, 6] of 22.5 ± 4.3 IU/L. For the same molecule, the LDH [1, 6] was 168 ± 39 IU/L, the “reversibility of liver enzyme increases” value ([1]; LDH, ALT, AST) was “reversible on discontinuation of dosing” and the ALT [1, 7] was 88.5 ± 37 IU/L. For the same molecule, the AST [1, 7] was 134 ± 41 ^b IU/L, the LDH [1, 7] was 730 ± 210 ^c IU/L and the ALT [1, 8] was 95.5 ± 33 IU/L. The AST [1, 8] was 150 ± 40 ^b IU/L, the LDH [1, 8] was 779 ± 403 IU/L and the ALT [1, 9] was 108 ± 28 ^a IU/L. For the same molecule, the AST [1, 9] was 188 ± 34 ^b IU/L, the LDH [1, 9] was 753 ± 242 ^c IU/L and the ALT [1, 10] was 86.0 ± 24 IU/L. For the same molecule, the AST [1, 10] was 138 ± 75 IU/L, the LDH [1, 10] was 795 ± 455 IU/L and the time to dissolve ([2]; 5 mg dose of SR13668 in 1:1 Solutol:Vit E TPGS) was 15 min. For the same molecule, the time to dissolve ([2]; 5 mg dose of SR13668 in Solutol) was < 1 min and the time to dissolve ([2]; 5 mg dose of SR13668 in Vit E TPGS) was 37 min.
